Assay results taken from PubChem BioAssay (NCI).
Several values for one entry are separate records, joined by “and”; a condition that tells them apart may be missing. Equal entries are not always repeated.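 96-well plates; 48 h exposure; 5 concentrations. Endpoints by linear interpolation between flanking doses. Not reached: highest tested concentration assigned. GI50: concentration for 50% inhibition of growth. The concentration for full growth arrest is given as TGI.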

Key:
Test in all cases: DTP human tumour cell line panel, 48 h
A498 renal = system: A498 renal
SNB-75 CNS = system: SNB-75 CNS
HOP-62 NSCLC = system: HOP-62 NSCLC
NCI/ADR-RES ovarian = system: NCI/ADR-RES ovarian
A549 NSCLC = system: A549 NSCLC
NCI-H460 lung = system: NCI-H460 lung
DU-145 prostate = system: DU-145 prostate
U251 CNS = system: U251 CNS
SK-MEL-28 melanoma = system: SK-MEL-28 melanoma
MDA-MB-231 breast = system: MDA-MB-231 breast

| Compound | GI50 (A498 renal) [µM] | TGI (A498 renal) | GI50 (SNB-75 CNS) [µM] | TGI (SNB-75 CNS) [µM] | GI50 (HOP-62 NSCLC) [µM] | TGI (HOP-62 NSCLC) [µM] | GI50 (NCI/ADR-RES ovarian) [µM] | TGI (NCI/ADR-RES ovarian) [µM] | GI50 (A549 NSCLC) [µM] | TGI (A549 NSCLC) [µM] | GI50 (NCI-H460 lung) [µM] | TGI (NCI-H460 lung) [µM] | GI50 (DU-145 prostate) [µM] | TGI (DU-145 prostate) [µM] | GI50 (U251 CNS) [µM] | TGI (U251 CNS) [µM] | GI50 (SK-MEL-28 melanoma) [µM] | TGI (SK-MEL-28 melanoma) [µM] | GI50 (MDA-MB-231 breast) [µM] | TGI (MDA-MB-231 breast) [µM] |
| --- | --- | --- | --- | --- | --- | --- | --- | --- | --- | --- | --- | --- | --- | --- | --- | --- | --- | --- | --- | --- |
| COC(=O)N[C@H]1CCc2cc(OC)c(OC)c(OC)c2-c2ccc(SC)c(=O)cc21 | < 0.01 | < 0.0255 µM | < 0.01 | > 100 | < 0.01 | > 100 | 0.0247 | > 100 | < 0.01 | > 100 | < 0.01 | > 100 | < 0.01 | > 100 | < 0.01 | > 43.5 | > 100 | > 100 | < 0.01 | 29 |
| C/C(=C\C(=O)O[C@H]1[C@@H]2[C@H](C)CC[C@H]2[C@]2(C)O[C@@]1(C1CCCCC1)C[C@H]2OC(=O)CO)c1ccccc1 | 0.0164 | 0.114 µM | 0.331 | 7.21 | 7 | 13 | 0.348 | 7.49 | 6.61 | 12.4 | 6.86 | 14.1 | 7.01 | 12.6 | 6.02 | 11.5 | 6.78 | 12.6 | 6.67 | 13 |
| COc1ccc(C2=NN(C(N)=S)C(c3ccc4c(c3)OCO4)C2)cc1 (stereo not given) | 2.24 | 9.07 µM | 2.75 | 8.51 | 3.56 | > 100 | 2.9 | 12.6 | 3.19 | > 100 | 2.6 | 6.83 | 1.94 | 4.56 | 3.05 | 19.6 | 9.33 | > 100 | 4.71 | 65.7 |
| O=c1nc2n(-c3cccc(Cl)c3)c3ccc([N+](=O)[O-])cc3cc-2c(=O)[nH]1 | 16.7 | > 25 µM | 11.7 | > 25 | 2.88 | 9.2 | 6.15 | 19.7 | 12.7 | > 25 | 9.77 | > 25 | 6.73 | > 25 | 2.63 | > 25 | 8.01 | > 25 | 5.36 | 12.3 |
| O=C(O)/C=C\C(=O)Nc1ccc2c(c1)-c1ccccc1C2 | – | > 100 µM | – | > 100 | – | > 100 | – | > 100 | – | > 100 | – | > 100 | – | > 100 | – | > 100 | – | > 100 | – | > 100 |
| Cc1c2cnccc2c(C)c2c1c1ccccc1n2CCOC(=O)c1ccccc1 | – | 32.2 µM | – | 44.7 | – | 31.5 | – | 33 | – | 43.1 | – | 16 | – | > 100 | – | 44.1 | – | 47.2 | – | > 100 |
| O=C1C=C(Nc2ccccc2)c2ccccc2C1=O | 1.96 | 5.26 µM | 1.32 | 2.67 | 1.17 | 2.83 | 2.48 | 8.82 | 1.84 | 4.06 | 2.44 | 6.47 | 1.84 | 3.29 | 1.8 | 4.6 | 2.13 | 4.46 | 1.88 | 7.61 |
| Cn1cc(-c2ccc3nc(-c4ccc(CC(=O)Nc5cc(C(C)(C)C)no5)cc4)cnc3c2)cn1 | 0.0439 | 0.185 µM | 0.0161 | > 0.84 | 0.0465 | > 3 | 0.0612 | > 3 | 0.0577 | > 3 | 0.0289 | > 3 | 0.0296 | > 3 | 0.0298 | > 3 | 0.104 | > 3 | 0.0392 | 0.664 |
| CN(C)CCNC(=O)c1cc2c3cc(Cl)ccc3[nH]c2c2ncccc12 | 3.52 | 13.1 µM | 3.85 | 15.8 | 5.85 | 19.1 | 5.4 | 20.8 | 1.93 | 4.7 | 2.57 | 10.7 | 3.4 | 12.7 | 2.49 | 9.45 | 2.12 | 4.18 | 1.98 | 9.77 |
| COc1ccc(-c2csc3c2-n2cccc2C3=O)cc1 | 0.124 | 1.17 µM and 3.15 µM | – | 0.434 | 0.0986 | > 72 | – | > 100 | 0.0664 | > 100 | 0.273 | > 43 | 0.0601 | – | 0.00887 | > 100 | – | > 100 | – | > 100 |
| CCCCn1c(=O)[nH]c(N)c([C@@H]2c3c([nH]c(=O)n(CCCC)c3=O)Oc3ccc4ccccc4c32)c1=O | 13.7 | 27.8 µM | 1.71 | 9.62 | 1.5 | 4.72 | 2.82 | 8.84 | 11.5 | 24.5 | 2.19 | 5.05 | 1.8 | 3.25 | 1.73 | 3.32 | 2.52 | 6.23 | 1.85 | 4.58 |
| O=C1CSC(c2c[nH]c3ccccc23)N1c1cccc(Cl)c1 (stereo not given) | – | > 100 µM | – | > 100 | – | > 100 | – | > 100 | – | > 100 | – | > 100 | – | > 100 | – | > 100 | – | > 100 | – | 80.2 |
| CN1C(=O)C(c2c[nH]c3ccccc23)=C(c2c[nH]c3ccccc23)C1=O | 3.55 | 17.2 µM | 4.26 | > 25 | 6.68 | > 25 | 6.66 | > 25 | 7.08 | > 25 | 5.52 | 15 | 9.38 | > 25 | 7.03 | > 25 | 7.84 | > 25 | 4.22 | 15.8 |
